Assay results from patent US4120955A, “Method for production of kanamycin C and its derivatives” (Zaidan Hojin Biseibutsu Kagaku Kenkyu Kai, priority 1976, dated 1978).
Values after ≈ are worked out from the molar mass of the structure shown. “Also recorded” adds a separate entry of the source. Where two headings read alike, the source gives them in different places.

What was measured:
[1] = system: aminoglycoside 3'-phosphotransferases; experiment: Inactivation by aminoglycoside 3'-phosphotransferases; type: biochemical
[2] = mouse, in vivo
Escherichia coli K-12 = experiment: Minimum inhibitory concentration, serial dilution method; type: cell-based
Description: (§1) The minimum inhibitory concentrations (mcg/ml) of kanamycin C, 3'-deoxykanamycin C and 3',4'-dideoxykanamycin C against various microorganisms were determened according to serial dilution method using nutrient agar medium at 37° C., the estimation being effected after 18 hours incubation.

[3] = system: Pseudomonas aeruginosa GN 315; experiment: as above; type: cell-based
Description: as §1

99 = experiment: as above; type: cell-based; conditions: 18 h, read-out: Minimum Inhibitory Concentration
Description: as §1

[4] = system: Escherichia coli LA 290 R56; experiment: as above; type: cell-based; conditions: LA290R56, 18 h, read-out: Minimum Inhibitory Concentration
Description: as §1

[5] = system: Escherichia coli K-12 ML 1630; experiment: as above; type: cell-based; conditions: K12ML1630, nutrient agar, 37° C., 18 hours, E. coli K-12 ML 1630
Description: as §1

[6] = system: Mycobacterium smegmatis ATCC 607; experiment: as above; type: cell-based; conditions: Mycolicibacterium smegmatis, read-out: Minimum Inhibitory Concentration
Description: as §1

Escherichia coli K-12 R5 = experiment: as above; type: cell-based; conditions: K12R5, 18 h, read-out: Minimum Inhibitory Concentration
Description: as §1

[7] = system: Pseudomonas aeruginosa A3; experiment: as above; type: cell-based; conditions: nutrient agar, 37° C., 18 hours, P. aeruginosa A3
Description: as §1

[8] = system: Escherichia coli JR 66/W677; experiment: as above; type: cell-based
Description: as §1

[9] = system: Escherichia coli LA 290 R64; experiment: as above; type: cell-based; conditions: LA290R64, 18 h, read-out: Minimum Inhibitory Concentration
Description: as §1

Escherichia coli NIHJ = experiment: as above; type: cell-based; conditions: read-out: Minimum Inhibitory Concentration
Description: as §1

[10] = system: Staphylococcus aureus FDA 209P; experiment: as above; type: cell-based; conditions: FDA209P, read-out: Minimum Inhibitory Concentration
Description: as §1

[11] = system: Klebsiella pneumoniae 22 No. 3038; experiment: as above; type: cell-based
Description: as §1

[12] = system: Escherichia coli LA 290 R55; experiment: as above; type: cell-based; conditions: LA290R55, 18 h, read-out: Minimum Inhibitory Concentration
Description: as §1

[13] = system: Escherichia coli K-12 ML 1410; experiment: as above; type: cell-based; conditions: K12ML1410, nutrient agar, 37° C., 18 hours, E. coli K-12 ML 1410
Description: as §1

Escherichia coli W 677 = experiment: as above; type: cell-based
Description: as §1

[14] = system: Escherichia coli K-12 ML 1629; experiment: as above; type: cell-based
Description: as §1

[15] = system: Pseudomonas aeruginosa TI-13; experiment: as above; type: cell-based
Description: as §1

[16] = system: Escherichia coli K-12 ML 1410 R81; experiment: as above; type: cell-based; conditions: 18 h, read-out: Minimum Inhibitory Concentration
Description: as §1

[17] = system: Klebsiella pneumoniae PCI 602; experiment: as above; type: cell-based
Description: as §1

[18] = system: Pseudomonas aeruginosa No. 12; experiment: as above; type: cell-based
Description: as §1

[19] = system: Pseudomonas aeruginosa H 11; experiment: as above; type: cell-based
Description: as §1

in vivo = conditions: mouse, iv
[20] = system: aminoglycoside 6'-acetyltransferases; experiment: Inactivation by aminoglycoside 6'-acetyltransferases; type: biochemical
bacterial strains = experiment: Antibacterial activity in general (summary of Table 1); type: cell-based; conditions: for antibacterial activity compared with 3'-deoxykanamycin B and 3',4'-dideoxykanamycin B: against some bacteria strains
Description: as §1

[21] = system: resistant strains which produce 6'-acetyltransferases, for example Pseudomonas aeruginosa GN315; experiment: Activity against resistant strains producing 6'-acetyltransferases; type: cell-based; conditions: compared with kanamycin B derivatives
[22] = system: aminoglycoside 6'-acetyltransferases; conditions: known kanamycins; cited from earlier work
[23] = system: resistant strains which produce 6'-acetyltransferases, for example Pseudomonas aeruginosa GN315; conditions: known deoxykanamycin B derivatives; cited from earlier work
[24] = K12, 18 h, read-out: Minimum Inhibitory Concentration
[25] = ATCC607, nutrient agar, 37° C., 18 hours, M. smegmatis ATCC 607
[26] = JR66/W677, 18 h, read-out: Minimum Inhibitory Concentration
[27] = 22NO.3038, 18 h, read-out: Minimum Inhibitory Concentration
[28] = W677, 18 h, read-out: Minimum Inhibitory Concentration
[29] = K12ML1629, 18 h, read-out: Minimum Inhibitory Concentration
[30] = TI13, 18 h, read-out: Minimum Inhibitory Concentration
[31] = PCI602, 18 h, read-out: Minimum Inhibitory Concentration
[32] = NO.12, 18 h, read-out: Minimum Inhibitory Concentration
[33] = GN315, nutrient agar, 37° C., 18 hours, P. aeruginosa GN 315, read-out: Minimum Inhibitory Concentration

| Structure (SMILES) | inactivation by 3'-phosphotransferases [1] | acute toxicity compared with deoxy derivatives of kanamycin B [2] | MIC (Escherichia coli K-12; [24]) [µg/mL] | MIC 99 [µg/mL] | MIC [4] [µg/mL] | MIC [5] [µg/mL] | MIC [6, 25] [µg/mL] | MIC (Escherichia coli K-12 R5) [µg/mL] | MIC [7] [µg/mL] | MIC [8, 26] [µg/mL] | MIC [9] [µg/mL] | MIC (Escherichia coli NIHJ; 18 h) [µg/mL] | MIC ([10]; 18 h) [µg/mL] | MIC [11, 27] [µg/mL] | MIC [12] [µg/mL] | MIC [13] [µg/mL] | MIC (Escherichia coli W 677; [28]) [µg/mL] | MIC [14, 29] [µg/mL] | MIC [15, 30] [µg/mL] | MIC [16] [µg/mL] | other results |
| --- | --- | --- | --- | --- | --- | --- | --- | --- | --- | --- | --- | --- | --- | --- | --- | --- | --- | --- | --- | --- | --- |
| NC1CCC(CO)OC1OC1C(N)CC(N)C(OC2OC(CO)C(O)C(N)C2O)C1O (stereo not shown) [3',4'-Dideoxykanamycin C, 3',4'-dideoxykanamycin C] | not inactivated | remarkably lower toxicity | 25 (≈ 55.2 µM) | > 100 | 100 (≈ 221 µM) | 12.5 (≈ 27.6 µM) | 50 (≈ 110 µM) | 12.5 (≈ 27.6 µM) | 100 (≈ 221 µM) | > 100 | 100 (≈ 221 µM) | 12.5 (≈ 27.6 µM) | 6.25 (≈ 13.8 µM) | > 100 | > 100 | 12.5 (≈ 27.6 µM) | 6.25 (≈ 13.8 µM) | 12.5 (≈ 27.6 µM) | 100 (≈ 221 µM) | 50 (≈ 110 µM) | MIC ([3]; GN315, 18 h, read-out: Minimum Inhibitory Concentration): 100 µg/mL (≈ 221 µM); MIC [17, 31]: 25 µg/mL (≈ 55.2 µM); MIC [18, 32]: 100 µg/mL (≈ 221 µM); MIC ([19]; H11, 18 h, read-out: Minimum Inhibitory Concentration): 100 µg/mL (≈ 221 µM); LD50 (in vivo): > 300 mg/kg; inactivation by 6'-acetyltransferases [20]: not inactivated; growth inhibition of bacterial strains (bacterial strains): inhibits the growth of many kinds of bacterial strains; antibacterial activity compared with 3'-deoxykanamycin B and 3',4'-dideoxykanamycin B (bacterial strains): inferior |
| NC1CC(O)C(CO)OC1OC1C(N)CC(N)C(OC2OC(CO)C(O)C(N)C2O)C1O (stereo not shown) [3'-Deoxykanamycin C, 3'-deoxykanamycin C] | not inactivated | remarkably lower toxicity | 12.5 (≈ 26.7 µM) | 100 (≈ 213 µM) | 100 (≈ 213 µM) | 12.5 (≈ 26.7 µM) | – | 12.5 (≈ 26.7 µM) | 12.5 (≈ 26.7 µM) | > 100 | 50 (≈ 107 µM) | 12.5 (≈ 26.7 µM) | 3.13 (≈ 6.68 µM) | > 100 | > 100 | 12.5 (≈ 26.7 µM) | 6.25 (≈ 13.3 µM) | 12.5 (≈ 26.7 µM) | – | 50 (≈ 107 µM) | MIC [3, 33]: 50 µg/mL (≈ 107 µM); MIC ([6]; ATCC607, 18 h): 25 µg/mL (≈ 53.4 µM); MIC ([15]; TI13, nutrient agar, 37° C., 18 hours, P. aeruginosa TI-13, read-out: Minimum Inhibitory Concentration): 50 µg/mL (≈ 107 µM); MIC [17, 31]: 6.25 µg/mL (≈ 13.3 µM); MIC [18, 32]: 100 µg/mL (≈ 213 µM); MIC ([19]; H11, nutrient agar, 37° C., 18 hours, P. aeruginosa H 11, read-out: Minimum Inhibitory Concentration): 50 µg/mL (≈ 107 µM); activity against resistant strains which produce 6'-acetyltransferases [21]: more active than kanamycin B derivatives; LD50 (in vivo): > 300 mg/kg; inactivation by 6'-acetyltransferases [20]: not inactivated; growth inhibition of bacterial strains (bacterial strains): inhibits the growth of many kinds of bacterial strains; antibacterial activity compared with 3'-deoxykanamycin B and 3',4'-dideoxykanamycin B (bacterial strains): inferior |
| NCC1CCC(N)C(OC2C(N)CC(N)C(OC3OC(CO)C(O)C(N)C3O)C2O)O1 (stereo not shown) [DKB, 3',4'-dideoxykanamycin B, reference compound] | – | – | – | 3.13 (≈ 6.93 µM) | 12.5 (≈ 27.7 µM) | 0.78 (≈ 1.73 µM) | 0.39 (≈ 0.864 µM) | – | 1.56 (≈ 3.45 µM) | – | 6.25 (≈ 13.8 µM) | – | – | – | 50 (≈ 111 µM) | 1.56 (≈ 3.45 µM) | – | – | 1.56 (≈ 3.45 µM) | 1.56 (≈ 3.45 µM) | inactivation (acetylation of the 6'-amino group) by 6'-acetyltransferases [22]: can be inactivated; also recorded: acetylate the 6'-amino group; MIC (Escherichia coli K-12; K12, nutrient agar, 37° C., 18 hours, E. coli K-12, read-out: Minimum Inhibitory Concentration): 0.78 µg/mL (≈ 1.73 µM); MIC [3, 33]: > 100 µg/mL; MIC ([8]; JR66/W677, nutrient agar, 37° C., 18 hours, E. coli JR 66/W677, read-out: Minimum Inhibitory Concentration): 50 µg/mL (≈ 111 µM); MIC (Escherichia coli NIHJ; nutrient agar, 37° C., 18 hours, E. coli NIHJ): 0.39 µg/mL (≈ 0.864 µM); MIC ([10]; nutrient agar, 37° C., 18 hours, S. aureus FDA 209P): < 0.2 µg/mL; MIC ([11]; nutrient agar, 37° C., 18 hours, K. pneumoniae 22 No. 3038, read-out: Minimum Inhibitory Concentration): 100 µg/mL (≈ 221 µM); MIC (Escherichia coli W 677; W677, nutrient agar, 37° C., 18 hours, E. coli W 677, read-out: Minimum Inhibitory Concentration): 0.2 µg/mL (≈ 0.443 µM); MIC ([14]; K12ML1629, nutrient agar, 37° C., 18 hours, E. coli K-12 ML 1629, read-out: Minimum Inhibitory Concentration): 0.78 µg/mL (≈ 1.73 µM); MIC ([17]; PCI602, nutrient agar, 37° C., 18 hours, K. pneumoniae PCI 602, read-out: Minimum Inhibitory Concentration): 0.39 µg/mL (≈ 0.864 µM); MIC ([18]; nutrient agar, 37° C., 18 hours, P. aeruginosa No. 12, read-out: Minimum Inhibitory Concentration): 0.78 µg/mL (≈ 1.73 µM); growth inhibition of resistant bacteria producing 6'-acetyltransferases [23]: not able to inhibit the growth |
